According to patent US8808702B2, “Sulfide, sulfoxide and sulfone chalcone analogues, derivatives thereof and therapeutic uses thereof” (Temple University-of the Commonwealth System of Higher …, priority 2006, dated 2014):
Like-named read-outs stand apart in the source and are kept apart here.

Tests used:
[1] = tested on: K562 (chronic myelogenous leukaemia); assay: Effect of compounds on tumor cell lines (assay of Latham et al.), K562; type: cell-based; details: K562 cells, read-out: K 562 potency (IC50)
Protocol: (§1) The effect of the compounds of the invention on tumor cells was determined by the assay described by Latham et al., Oncogene 12:827-837 (1996). Tumor cells K562 (chronic myelogenous leukaemia) or DU145 (prostate cancer) were plated in 12-well dishes at a cell density of 2.5×10^4 cells well. The plated cells were treated 24 hours later with a compound of the invention dissolved in DMSO at multiple concentrations ranging from 1 μM to 100 μM. The plates were examined 96 hours later under an inverted microscope, Olympus CK-2 using an 10× objective, and compound activity was noted by physical observation. When necessary, the total number of viable cells was determined by trypsinizing the wells and counting the number of viable cells, as determined by trypan blue exclusion, using a hemacytometer.
(§2) The representative compounds listed in Tables 1-5 are shown by way of illustration, and are not intended to limit the scope of the invention. The compounds are prepared and tested by methods based on those described above, except that the compound of Table 5 was dissolved in DMSO at multiple concentrations ranging from 0.1 μM to 100 μM

DU145 (prostate cancer) = assay: Effect of compounds on tumor cell lines (assay of Latham et al.), DU145; type: cell-based; details: DU145 cells, read-out: DU 145 potency (IC50)
Protocol: as §1, §2

[2] = Table 1, examined 96 hours after treatment, 1 μM to 100 μM in DMSO
[3] = 96 hours after treatment, 1 μM to 100 μM

Row | SMILES | IC50 [1, 2] | IC50 (DU145 (prostate cancer); [2]) | IC50 [1, 3] | IC50 (DU145 (prostate cancer); [3])
1 | COc1ccc(C(=O)C(=Cc2ccc(OC)c(O)c2)Sc2ccc(F)cc2)cc1 [Example 56] | 1 to 10 µM | 10 to 25 µM | – | –
2 | COc1ccc(C(=O)C(=Cc2ccc(Br)cc2)Sc2ccc(F)cc2)cc1 [Example 57] | > 100 µM | > 100 µM | – | –
3 | COc1ccc(C(=O)C(=Cc2ccc(Cl)cc2)Sc2ccc(F)cc2)cc1 [Example 58] | > 100 µM | > 100 µM | – | –
4 | COc1ccc(C=C(Sc2ccc(F)cc2)C(=O)c2ccc(OC)cc2)cc1 [Example 59] | 1 to 10 µM | 25 to 50 µM | – | –
5 | Cc1ccc(C=C(Sc2ccc(F)cc2)C(=O)c2ccc(Cl)cc2)s1 [Example 60] | 25 to 50 µM | 25 to 50 µM | – | –
6 | COc1ccc(SC(=Cc2ccc(Cl)cc2Cl)C(=O)c2ccc(Br)cc2)cc1 [Example 61] | 1 to 10 µM | 1 to 10 µM | – | –
7 | COc1ccc(SC(=Cc2ccccc2OCc2ccccc2)C(=O)c2ccc(Cl)cc2)cc1 [Example 62] | 1 to 10 µM | 1 to 10 µM | – | –
8 | COc1ccc(SC(=Cc2ccc(Br)cc2)C(=O)c2ccc(Br)cc2)cc1 [Example 63] | 1 to 10 µM | 25 to 50 µM | – | –
9 | COc1ccc(SC(=Cc2ccc(C)s2)C(=O)c2ccc(Cl)cc2)cc1 [Example 64] | 50 to 100 µM | 50 to 100 µM | – | –
10 | Cc1ccc(SC(=Cc2c(F)c(F)c(F)c(F)c2F)C(=O)c2ccc(Cl)cc2)cc1 [Example 65] | 25 to 50 µM | 25 to 50 µM | – | –
11 | Cc1ccc(SC(=Cc2c(O)cc(O)cc2O)C(=O)c2ccc(Br)cc2)cc1 [Example 67] | 50 to 100 µM | > 100 µM | – | –
12 | Cc1ccc(SC(=Cc2c(O)cc(O)cc2O)C(=O)c2ccc(Cl)cc2)cc1 [Example 68] | > 100 µM | > 100 µM | – | –
13 | COc1cc(OC)c(C=C(Sc2ccc(C)cc2)C(=O)c2ccc(Cl)cc2)c(OC)c1 [Example 70] | 25 to 50 µM | > 100 µM | – | –
14 | Cc1ccc(SC(=Cc2ccc(Cl)cc2Cl)C(=O)c2ccc(Cl)cc2)cc1 [Example 71] | 25 to 50 µM | 10 to 25 µM | – | –
15 | Cc1ccc(SC(=Cc2ccc(F)cc2F)C(=O)c2ccc(Br)cc2)cc1 [Example 73] | > 100 µM | > 100 µM | – | –
16 | Cc1ccc(SC(=Cc2cc([N+](=O)[O-])ccc2F)C(=O)c2ccc(Cl)cc2)cc1 [Example 74] | 1 to 10 µM | 10 to 25 µM | – | –
17 | COc1ccccc1C=C(Sc1ccc(C)cc1)C(=O)c1ccc(Cl)cc1 [Example 75] | 10 to 25 µM | 25 to 50 µM | – | –
18 | Cc1ccc(SC(=Cc2ccc[nH]2)C(=O)c2ccc(Cl)cc2)cc1 [Example 76] | 10 to 25 µM | 10 to 25 µM | – | –
19 | Cc1ccc(SC(=Cc2ccc(Cl)c(Cl)c2)C(=O)c2ccc(Br)cc2)cc1 [Example 77] | 50 to 100 µM | 50 to 100 µM | – | –
20 | Cc1ccc(SC(=Cc2cc(C)cc(C)c2)C(=O)c2ccc(Cl)cc2)cc1 [Example 78] | 25 to 50 µM | 50 to 100 µM | – | –
21 | COc1ccc(C=C(Sc2ccc(C)cc2)C(=O)c2ccc(Cl)cc2)cc1O [Example 79] | 1 to 10 µM | 1 to 10 µM | – | –
22 | Cc1ccc(SC(=Cc2c[nH]c3ccccc23)C(=O)c2ccc(Br)cc2)cc1 [Example 80] | 10 to 25 µM | 10 to 25 µM | – | –
23 | Cc1ccc(SC(=Cc2c[nH]c3ccccc23)C(=O)c2ccc(Cl)cc2)cc1 [Example 81] | 1 to 10 µM | 10 to 25 µM | – | –
24 | Cc1ccc(SC(=Cc2sccc2C)C(=O)c2ccc(Br)cc2)cc1 [Example 82] | 50 to 100 µM | > 100 µM | – | –
25 | Cc1ccc(SC(=Cc2sccc2C)C(=O)c2ccc(Br)cc2)cc1 [Example 83] | 50 to 100 µM | 50 to 100 µM | – | –
26 | Cc1ccc(SC(=Cc2sccc2C)C(=O)c2ccc(Cl)cc2)cc1 [Example 84] | 50 to 100 µM | 50 to 100 µM | – | –
27 | Cc1ccc(SC(=Cc2cnc3ccccc3c2)C(=O)c2ccc(Cl)cc2)cc1 [Example 85] | > 100 µM | > 100 µM | – | –

Row | SMILES | IC50 [1, 2] | IC50 (DU145 (prostate cancer); [2]) | IC50 [1, 3] | IC50 (DU145 (prostate cancer); [3])
28 | CC(=O)Oc1ccc(C=C(Sc2ccc(C)cc2)C(=O)c2ccc(Cl)cc2)cc1 [Example 86] | 1 to 10 µM | 10 to 25 µM | – | –
29 | CC(=O)c1ccc(C=C(Sc2ccc(C)cc2)C(=O)c2ccc(Br)cc2)cc1 [Example 87] | 50 to 100 µM | 50 to 100 µM | – | –
30 | Cc1ccc(SC(=Cc2ccc(Br)cc2)C(=O)c2ccc(Cl)cc2)cc1 [Example 88] | 50 to 100 µM | 25 to 50 µM | – | –
31 | Cc1ccc(SC(=Cc2ccc(Cl)cc2)C(=O)c2ccc(Br)cc2)cc1 [Example 90] | 1 to 10 µM | 10 to 25 µM | – | –
32 | Cc1ccc(SC(=Cc2ccc(Cl)cc2)C(=O)c2ccc(Cl)cc2)cc1 [Example 91] | 1 to 10 µM | 25 to 50 µM | – | –
33 | CCOc1ccc(C=C(Sc2ccc(C)cc2)C(=O)c2ccc(Cl)cc2)cc1OC [Example 93] | 10 to 25 µM | 25 to 50 µM | – | –
34 | Cc1ccc(SC(=Cc2ccc(F)cc2OC(F)(F)F)C(=O)c2ccc(Br)cc2)cc1 [Example 94] | 25 to 50 µM | 25 to 50 µM | – | –
35 | Cc1ccc(SC(=Cc2ccc(F)c(C)c2)C(=O)c2ccc(Br)cc2)cc1 [Example 95] | 1 to 10 µM | 25 to 50 µM | – | –
36 | Cc1ccc(SC(=Cc2ccc(O)c([N+](=O)[O-])c2)C(=O)c2ccc(Cl)cc2)cc1 [Example 96] | 25 to 50 µM | 10 to 25 µM | – | –
37 | CSc1ccc(C=C(Sc2ccc(C)cc2)C(=O)c2ccc(Br)cc2)cc1 [Example 97] | 1 to 10 µM | 25 to 50 µM | – | –
38 | COc1ccc(C=C(Sc2ccc(C)cc2)C(=O)c2ccc(Br)cc2)cc1 [Example 99] | 10 to 25 µM | 50 to 100 µM | – | –
39 | COc1ccc(C=C(Sc2ccc(C)cc2)C(=O)c2ccc(Cl)cc2)cc1 [Example 100] | 1 to 10 µM | 1 to 10 µM | – | –
40 | Cc1ccc(SC(=Cc2ccc(N(C)C)cc2)C(=O)c2ccc(Br)cc2)cc1 [Example 101] | 50 to 100 µM | > 100 µM | – | –
41 | Cc1ccc(SC(=Cc2ccc(N(C)C)cc2)C(=O)c2ccc(Cl)cc2)cc1 [Example 102] | > 100 µM | > 100 µM | – | –
42 | Cc1ccc(SC(=Cc2ccc(Oc3ccccc3)cc2)C(=O)c2ccc(Br)cc2)cc1 [Example 103] | 10 to 25 µM | 1 to 10 µM | – | –
43 | Cc1ccc(SC(=Cc2ccc(Oc3ccccc3)cc2)C(=O)c2ccc(Cl)cc2)cc1 [Example 104] | 10 to 25 µM | 10 to 25 µM | – | –
44 | Cc1ccc(SC(=Cc2c[nH]c3ccc(Br)cc23)C(=O)c2ccc(Br)cc2)cc1 [Example 105] | 10 to 25 µM | 1 to 10 µM | – | –
45 | Cc1ccc(SC(=Cc2c[nH]c3ccc(Br)cc23)C(=O)c2ccc(Cl)cc2)cc1 [Example 106] | 1 to 10 µM | 1 to 10 µM | – | –
46 | Cc1ccc(SC(=Cc2c[nH]c3ccc(Cl)cc23)C(=O)c2ccc(Br)cc2)cc1 [Example 107] | 1 to 10 µM | 1 to 10 µM | – | –
47 | Cc1ccc(SC(=Cc2c[nH]c3ccc(Cl)cc23)C(=O)c2ccc(Cl)cc2)cc1 [Example 108] | 1 to 10 µM | 1 to 10 µM | – | –
48 | Cc1ccc(SC(=Cc2ccc(C)s2)C(=O)c2ccc(Br)cc2)cc1 [Example 109] | 50 to 100 µM | > 100 µM | – | –
49 | Cc1ccc(SC(=Cc2ccc(-c3ccccc3)cc2)C(=O)c2ccc(Br)cc2)cc1 [Example 110] | 25 to 50 µM | 50 to 100 µM | – | –
50 | Cc1ccc(SC(=Cc2ccc(-c3ccccc3)cc2)C(=O)c2ccc(Cl)cc2)cc1 [Example 111] | 25 to 50 µM | 50 to 100 µM | – | –
51 | O=C(O)c1ccc(C(=O)C(=Cc2ccc(F)c([N+](=O)[O-])c2)Sc2c(F)c(F)c(F)c(F)c2F)cc1 [Example 112] | ≤ 1 µM | 1 to 10 µM | – | –
52 | Cc1ccc(SC(=Cc2ccc(F)c([N+](=O)[O-])c2)C(=O)c2ccc(Br)cc2)cc1 [Example 113] | 1 to 10 µM | 1 to 10 µM | – | –
53 | O=C(C(=Cc1cccc(Cl)c1Cl)SCc1ccc(Cl)cc1Cl)c1ccc(Cl)cc1 [Example 114] | – | – | 1 to 10 µM | 1 to 10 µM
